A short description of data set [1]: Cell viability assay (MTT), VERO. Format: cell-based, Cercopithecus aethiops. The settings on record: African green monkey (Cercopithecus aethiops), VERO kidney epithelial cells. In a few lines:
(§1)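 L929 and VERO cells seeded at 1.0 × 10^4/well, attached 24 h, then exposed 24 h to compounds at 0.9–125.00 μg/ml (from DMSO stock). MTT (1 mg/ml) added for 2 h at 37 °C, formazan dissolved in DMSO, OD read at 550 nm. Viability expressed as percentage of 2.5% DMSO-treated controls; triplicate.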

The nature of data set [2]: Cell viability assay (MTT), L929. Type of data set: cell-based, Mus musculus. The note with it: mouse, L929 fibroblast cells. In a few lines: as §1
For data set [3], the system named is human lung carcinoma A549 cells. Put plainly: In vitro antiproliferative assay (SRB), A549. Type of data set: cell-based. The settings on record: mean ± SD; for IC50: Homo sapiens, A549, 72 h exposure. The method, then: Biphenotypic B myelomonocytic leukemia MV4-11, human lung carcinoma A549, human breast carcinoma MCF-7, and normal mouse fibroblast BALB/3T3 cells were obtained from American Type Culture Collection (Rockville, Maryland, USA). All the cell lines are being maintained at the Institute of Immunology and Experimental Therapy, Wroclaw, Poland. MV4-11 cells were cultured in RPMI 1640 medium (Gibco, UK) with 2 mM L-glutamine adjusted to contain 1.0 mM sodium pyruvate, and 10% fetal bovine serum (FBS) (all from Sigma-Aldrich, Germany). A549 cells were cultured in RPMI 1640+ Opti-MEM (1:1) (both from Gibco, UK), MCF-7 cells in Eagle medium (IIET, Wroclaw, Poland), BALB/3T3 in Dulbecco medium (IIET, Poland) supplemented with 2 mM L-glutamine and 1.0 mM sodium pyruvate, 10% fetal bovine serum (all from Sigma-Aldrich, Germany). The MCF-7 cell culture was supplemented with 0.8 mg/l of insulin (Sigma-Aldrich, Germany). All culture media were supplemented with 100 units/ml penicillin, and 100 µg/ml streptomycin (both from Polfa Tarchomin S.A., Poland). All cell lines were grown at 37 °C with 5% CO2 humidified atmosphere (Łączkowski et al. [2014], [2016a]). Prior to usage, the compounds were dissolved in DMSO and culture medium (1: 9) to the concentration of 1 mg/ml, and subsequently diluted in culture medium to reach the required concentrations (0.1, 1, 10, and 100 µg/ml) (Łączkowski et al. [2014], [2016a]). Twenty-four hours prior to the addition of the tested compounds, the cells counted using Burker hemocytometer were plated in 96-well plates (Sarstedt, Germany) at a density of 1 × 10^4 cells per well. The assay was performed after 72 h of exposure to varying concentrations of the tested agents. The in vitro cytotoxic effect of all agents was examined using the SRB assay for adherent cells (A549, MCF-7, and BALB/3T3) or MTT assay for leukemia cells (MV4-11) as described previously. […] Each compound in each concentration was tested in triplicate in a single experiment, which was repeated 3–7 times (Rubinstein et al. [1990]; Bramson et al. [1995]). Cells were attached to the bottom of plastic wells by fixing them with cold 50% TCA (trichloroacetic acid, POCH, Gliwice, Poland) on top of the culture medium in each well. The plates were incubated at 4 °C for 1 h and then washed five times with tap water. The cellular material fixed with TCA was stained with 0.1% sulforhodamine B (SRB, Sigma-Aldrich, Germany) and dissolved in 1% acetic acid (POCH, Gliwice, Poland) for 30 min. Unbound dye was removed by rinsing (4×) in 1% acetic acid. The protein-bound dye was extracted with 10 mM unbuffered Tris base (Sigma-Aldrich, Germany) for determination of the optical density (λ = 540 nm) in a computer-interfaced, 96-well Synergy H4 (BioTek Instruments USA) photometer microtiter plate reader (Sidoryk et al. [2012]).

One may read the viability as a read-out of living cells in per cent, often relative to untreated cells. One may read the melting point as the temperature of the solid-liquid transition. For orientation: IC50 means the midpoint of a concentration-inhibition curve. In turn, `C/C(=N\Nc1nc(-c2ccc(I)cc2)cs1)c1ccc(Nc2nc(N)nc(N)n2)cc1` [Compound 4e, (E)-N^2-(4-(1-(2-(4-(4-iodophenyl)-1,3-thiazol-2-yl)hydrazinylidene)ethyl)phenyl)-1,3,5-triazine-2,4,6-triamine] yielded a melting point of 248 to 251 °C. Moreover, in data set [1], the viability at 24 h, 0.9 µg/ml came to 100%; the viability at 24 h, 1.8 µg/ml is 100%; the viability at 24 h, 3.9 µg/ml came out at 97%; the viability at 24 h, 7.8 µg/ml was 87.3%. Moreover, in data set [1], the viability at 24 h, 15.6 µg/ml is 101%; the viability at 24 h, 31.2 µg/ml was 113%; the viability at 24 h, 62.5 µg/ml was determined as 117%; the viability at 24 h, 125 µg/ml came out at 113%. In data set [2], the viability at 24 h, 0.9 µg/ml amounted to 96%; the viability at 24 h, 1.8 µg/ml was 97.6%; the viability at 24 h, 3.9 µg/ml is 99.1%; the viability at 24 h, 7.8 µg/ml was determined as 88.8%. For the same compound, in data set [2], the viability at 24 h, 15.6 µg/ml is 98.8%; the viability at 24 h, 31.2 µg/ml amounted to 108%; the viability at 24 h, 62.5 µg/ml was found to be 109%; the viability at 24 h, 125 µg/ml is 101%. For the same compound, the IC50 in data set [3] was found to be 45.4 ± 18.3 µg/mL.
The compound `C/C(=N\Nc1nc(-c2ccc(Br)cc2)cs1)c1ccc(Nc2nc(N)nc(N)n2)cc1` [Compound 4d, (E)-N^2-(4-(1-(2-(4-(4-bromophenyl)-1,3-thiazol-2-yl)hydrazinylidene)ethyl)phenyl)-1,3,5-triazine-2,4,6-triamine] gave a melting point of 226 to 230 °C. For the same compound, in data set [1], the viability at 24 h, 0.9 µg/ml amounted to 99.9%; the viability at 24 h, 1.8 µg/ml came to 94.4%; the viability at 24 h, 3.9 µg/ml came out at 90.1%; the viability at 24 h, 7.8 µg/ml is 86%. In data set [1], the viability at 24 h, 15.6 µg/ml turned out to be 104%; the viability at 24 h, 31.2 µg/ml is 114%; the viability at 24 h, 62.5 µg/ml was determined as 100%; the viability at 24 h, 125 µg/ml stood at 112%. Also, in data set [2], the viability at 24 h, 0.9 µg/ml worked out at 99.9%; the viability at 24 h, 1.8 µg/ml is 97.8%; the viability at 24 h, 3.9 µg/ml worked out at 99.9%; the viability at 24 h, 7.8 µg/ml was determined as 93.7%. Further, in data set [2], the viability at 24 h, 15.6 µg/ml was 108%; the viability at 24 h, 31.2 µg/ml was found to be 113%; the viability at 24 h, 62.5 µg/ml was determined as 115%; the viability at 24 h, 125 µg/ml came to 113%. In data set [3], the IC50 was 24.7 ± 6.1 µg/mL.
In turn, `C/C(=N\Nc1nc(-c2ccc(F)cc2)cs1)c1ccc(Nc2nc(N)nc(N)n2)cc1` [Compound 4a, (E)-N^2-(4-(1-(2-(4-(4-fluorophenyl)-1,3-thiazol-2-yl)hydrazinylidene)ethyl)phenyl)-1,3,5-triazine-2,4,6-triamine] registered a melting point of 223 to 225 °C. For the same compound, in data set [1], the viability at 24 h, 0.9 µg/ml turned out to be 90.5%; the viability at 24 h, 1.8 µg/ml worked out at 97.6%; the viability at 24 h, 3.9 µg/ml came to 100%; the viability at 24 h, 7.8 µg/ml worked out at 95.9%. For the same compound, in data set [1], the viability at 24 h, 15.6 µg/ml came to 103%; the viability at 24 h, 31.2 µg/ml came to 107%; the viability at 24 h, 62.5 µg/ml was determined as 105%; the viability at 24 h, 125 µg/ml is 100%. Further, in data set [2], the viability at 24 h, 0.9 µg/ml was found to be 96.6%; the viability at 24 h, 1.8 µg/ml turned out to be 101%; the viability at 24 h, 3.9 µg/ml is 105%; the viability at 24 h, 7.8 µg/ml was found to be 99%. In data set [2], the viability at 24 h, 15.6 µg/ml worked out at 102%; the viability at 24 h, 31.2 µg/ml was determined as 111%; the viability at 24 h, 62.5 µg/ml was determined as 115%; the viability at 24 h, 125 µg/ml is 111%. The IC50 in data set [3] was 38.6 ± 4.17 µg/mL.
As to `C/C(=N\Nc1nc(-c2ccccc2)cs1)c1ccc(Nc2nc(N)nc(N)n2)cc1` [Compound 4k, (E)-N^2-(4-(1-(2-(4-phenyl-1,3-thiazol-2-yl)hydrazinylidene)ethyl)phenyl)-1,3,5-triazine-2,4,6-triamine], the melting point was greater than 300 °C. Further, in data set [1], the viability at 24 h, 0.9 µg/ml worked out at 91.9%; the viability at 24 h, 1.8 µg/ml was 95.5%; the viability at 24 h, 3.9 µg/ml is 99.3%; the viability at 24 h, 7.8 µg/ml stood at 95.7%. In addition, in data set [1], the viability at 24 h, 15.6 µg/ml is 104%; the viability at 24 h, 31.2 µg/ml turned out to be 106%; the viability at 24 h, 62.5 µg/ml is 113%; the viability at 24 h, 125 µg/ml stood at 113%. Moreover, in data set [2], the viability at 24 h, 0.9 µg/ml amounted to 109%; the viability at 24 h, 1.8 µg/ml is 107%; the viability at 24 h, 3.9 µg/ml came to 106%; the viability at 24 h, 7.8 µg/ml is 101%. For the same compound, in data set [2], the viability at 24 h, 15.6 µg/ml was found to be 106%; the viability at 24 h, 31.2 µg/ml is 111%; the viability at 24 h, 62.5 µg/ml was 116%; the viability at 24 h, 125 µg/ml was found to be 130%. Also, in data set [3] (72 h exposure), the “IC50 A549” value is on record as “no antiproliferative activity”.
Turning to `C/C(=N\Nc1nc(-c2ccc(Cl)cc2)cs1)c1ccc(Nc2nc(N)nc(N)n2)cc1` [Compound 4b, (E)-N^2-(4-(1-(2-(4-(4-chlorophenyl)-1,3-thiazol-2-yl)hydrazinylidene)ethyl)phenyl)-1,3,5-triazine-2,4,6-triamine], the melting point was 237 to 239 °C. Further, in data set [1], the viability at 24 h, 0.9 µg/ml was 93.5%; the viability at 24 h, 1.8 µg/ml was 95.8%; the viability at 24 h, 3.9 µg/ml came to 90.1%; the viability at 24 h, 7.8 µg/ml worked out at 94.7%. Also, in data set [1], the viability at 24 h, 15.6 µg/ml worked out at 103%; the viability at 24 h, 31.2 µg/ml came to 115%; the viability at 24 h, 62.5 µg/ml was 115%; the viability at 24 h, 125 µg/ml stood at 113%. In addition, in data set [2], the viability at 24 h, 0.9 µg/ml came out at 94.8%; the viability at 24 h, 1.8 µg/ml stood at 95.3%; the viability at 24 h, 3.9 µg/ml turned out to be 99.4%; the viability at 24 h, 7.8 µg/ml was found to be 99.4%. In addition, in data set [2], the viability at 24 h, 15.6 µg/ml came out at 110%; the viability at 24 h, 31.2 µg/ml came to 113%; the viability at 24 h, 62.5 µg/ml is 119%; the viability at 24 h, 125 µg/ml amounted to 118%. For the same compound, the IC50 in data set [3] is 23.8 ± 4.41 µg/mL.
